Results reported in publication PMC4854315, “Discovery of a novel allosteric inhibitor-binding site in ERK5: comparison with the canonical kinase hinge ATP-binding site” (Acta Crystallographica. Section D, Structural Biology, 2016).

Legend:
Assay in all cases: Z'-LYTE kinase panel
Format in all cases: biochemical
[1] = biological target: T1, PRKCA (PKC alpha) (Homo sapiens, UniProt P17252)
T1 construct: purchased ThermoFisher (SelectScreen, Z'-LYTE)
Method in brief: (§1)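 Z′-LYTE, standard conditions; 10 µM test compound; values = % inhibition; broad panel of 225 kinases.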

[2] = biological target: T2, CDK1/cyclin B (Homo sapiens, UniProt P06493)
T2 construct: purchased ThermoFisher (SelectScreen, Z'-LYTE)
T2 sequence (P06493 whole entry): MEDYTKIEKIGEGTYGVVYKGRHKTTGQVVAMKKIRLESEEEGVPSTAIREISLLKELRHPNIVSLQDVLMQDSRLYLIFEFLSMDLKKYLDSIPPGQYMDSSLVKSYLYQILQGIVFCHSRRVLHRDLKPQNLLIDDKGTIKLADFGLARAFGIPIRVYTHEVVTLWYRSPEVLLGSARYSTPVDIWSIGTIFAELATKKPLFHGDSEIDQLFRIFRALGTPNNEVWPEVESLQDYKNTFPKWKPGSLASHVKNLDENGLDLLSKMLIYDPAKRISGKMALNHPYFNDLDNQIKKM
T2 sequence (P14635 whole entry partner): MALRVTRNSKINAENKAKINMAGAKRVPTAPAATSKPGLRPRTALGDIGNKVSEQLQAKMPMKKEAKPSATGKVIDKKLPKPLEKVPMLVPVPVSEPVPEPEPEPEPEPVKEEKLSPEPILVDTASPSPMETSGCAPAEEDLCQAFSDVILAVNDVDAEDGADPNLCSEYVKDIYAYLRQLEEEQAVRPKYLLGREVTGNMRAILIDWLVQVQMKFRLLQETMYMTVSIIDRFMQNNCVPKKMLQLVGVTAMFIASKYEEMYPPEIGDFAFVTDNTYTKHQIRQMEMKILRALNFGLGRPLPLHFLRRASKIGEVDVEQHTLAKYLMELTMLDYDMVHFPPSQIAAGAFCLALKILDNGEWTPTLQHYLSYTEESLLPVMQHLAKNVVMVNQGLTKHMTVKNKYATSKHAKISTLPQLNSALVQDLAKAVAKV
Method in brief: as §1

[3] = biological target: T3, SRPK1 (Homo sapiens, UniProt Q96SB4)
T3 construct: purchased ThermoFisher (SelectScreen, Z'-LYTE)
T3 sequence (Q96SB4 whole entry): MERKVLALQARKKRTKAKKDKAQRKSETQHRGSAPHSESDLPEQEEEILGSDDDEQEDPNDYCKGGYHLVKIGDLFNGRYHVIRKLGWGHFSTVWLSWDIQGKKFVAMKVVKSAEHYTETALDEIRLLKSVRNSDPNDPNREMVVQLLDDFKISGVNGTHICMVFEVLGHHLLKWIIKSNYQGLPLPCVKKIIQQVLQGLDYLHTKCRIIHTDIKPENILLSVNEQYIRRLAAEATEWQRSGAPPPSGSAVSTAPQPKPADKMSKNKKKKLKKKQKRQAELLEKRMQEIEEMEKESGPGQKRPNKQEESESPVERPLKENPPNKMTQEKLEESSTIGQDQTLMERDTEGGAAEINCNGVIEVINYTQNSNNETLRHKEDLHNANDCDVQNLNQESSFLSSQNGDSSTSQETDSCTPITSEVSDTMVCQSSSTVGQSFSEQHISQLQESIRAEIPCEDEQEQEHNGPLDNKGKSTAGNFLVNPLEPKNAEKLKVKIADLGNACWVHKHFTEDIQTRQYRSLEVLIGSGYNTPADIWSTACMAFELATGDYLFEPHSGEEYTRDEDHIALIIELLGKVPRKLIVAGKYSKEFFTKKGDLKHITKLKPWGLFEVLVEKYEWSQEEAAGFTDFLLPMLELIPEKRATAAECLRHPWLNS
Method in brief: as §1

[4] = biological target: T4, LTK (TYK1) (Homo sapiens, UniProt P29376)
T4 construct: purchased ThermoFisher (SelectScreen, Z'-LYTE)
T4 sequence (P29376 17-864): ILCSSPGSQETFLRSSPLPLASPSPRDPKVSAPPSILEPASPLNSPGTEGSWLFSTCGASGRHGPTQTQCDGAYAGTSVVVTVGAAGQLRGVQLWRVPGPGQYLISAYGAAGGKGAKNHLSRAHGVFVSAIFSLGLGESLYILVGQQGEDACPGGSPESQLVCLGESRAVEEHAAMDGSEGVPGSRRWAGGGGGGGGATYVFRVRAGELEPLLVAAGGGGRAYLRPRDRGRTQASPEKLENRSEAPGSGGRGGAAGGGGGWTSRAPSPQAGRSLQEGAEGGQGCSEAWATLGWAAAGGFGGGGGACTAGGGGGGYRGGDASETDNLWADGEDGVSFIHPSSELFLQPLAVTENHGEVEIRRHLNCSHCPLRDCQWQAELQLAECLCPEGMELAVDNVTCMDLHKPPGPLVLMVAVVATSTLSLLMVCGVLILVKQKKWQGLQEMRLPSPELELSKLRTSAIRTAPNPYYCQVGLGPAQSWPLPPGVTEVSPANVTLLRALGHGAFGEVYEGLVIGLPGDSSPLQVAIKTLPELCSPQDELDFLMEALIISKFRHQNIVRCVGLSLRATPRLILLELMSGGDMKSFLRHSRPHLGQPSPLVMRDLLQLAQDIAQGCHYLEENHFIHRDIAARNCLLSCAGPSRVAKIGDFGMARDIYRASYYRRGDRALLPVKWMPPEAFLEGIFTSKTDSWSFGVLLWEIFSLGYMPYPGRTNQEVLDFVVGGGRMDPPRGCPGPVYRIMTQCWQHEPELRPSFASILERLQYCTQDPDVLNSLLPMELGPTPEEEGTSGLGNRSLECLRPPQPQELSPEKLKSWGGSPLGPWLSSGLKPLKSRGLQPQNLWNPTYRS
Method in brief: as §1

[5] = biological target: T5, TYK2 (Homo sapiens, UniProt P29597); details: 10 µM compound, ATP Km app
T5 construct: purchased ThermoFisher (SelectScreen, Z'-LYTE)
T5 sequence (P29597 whole entry): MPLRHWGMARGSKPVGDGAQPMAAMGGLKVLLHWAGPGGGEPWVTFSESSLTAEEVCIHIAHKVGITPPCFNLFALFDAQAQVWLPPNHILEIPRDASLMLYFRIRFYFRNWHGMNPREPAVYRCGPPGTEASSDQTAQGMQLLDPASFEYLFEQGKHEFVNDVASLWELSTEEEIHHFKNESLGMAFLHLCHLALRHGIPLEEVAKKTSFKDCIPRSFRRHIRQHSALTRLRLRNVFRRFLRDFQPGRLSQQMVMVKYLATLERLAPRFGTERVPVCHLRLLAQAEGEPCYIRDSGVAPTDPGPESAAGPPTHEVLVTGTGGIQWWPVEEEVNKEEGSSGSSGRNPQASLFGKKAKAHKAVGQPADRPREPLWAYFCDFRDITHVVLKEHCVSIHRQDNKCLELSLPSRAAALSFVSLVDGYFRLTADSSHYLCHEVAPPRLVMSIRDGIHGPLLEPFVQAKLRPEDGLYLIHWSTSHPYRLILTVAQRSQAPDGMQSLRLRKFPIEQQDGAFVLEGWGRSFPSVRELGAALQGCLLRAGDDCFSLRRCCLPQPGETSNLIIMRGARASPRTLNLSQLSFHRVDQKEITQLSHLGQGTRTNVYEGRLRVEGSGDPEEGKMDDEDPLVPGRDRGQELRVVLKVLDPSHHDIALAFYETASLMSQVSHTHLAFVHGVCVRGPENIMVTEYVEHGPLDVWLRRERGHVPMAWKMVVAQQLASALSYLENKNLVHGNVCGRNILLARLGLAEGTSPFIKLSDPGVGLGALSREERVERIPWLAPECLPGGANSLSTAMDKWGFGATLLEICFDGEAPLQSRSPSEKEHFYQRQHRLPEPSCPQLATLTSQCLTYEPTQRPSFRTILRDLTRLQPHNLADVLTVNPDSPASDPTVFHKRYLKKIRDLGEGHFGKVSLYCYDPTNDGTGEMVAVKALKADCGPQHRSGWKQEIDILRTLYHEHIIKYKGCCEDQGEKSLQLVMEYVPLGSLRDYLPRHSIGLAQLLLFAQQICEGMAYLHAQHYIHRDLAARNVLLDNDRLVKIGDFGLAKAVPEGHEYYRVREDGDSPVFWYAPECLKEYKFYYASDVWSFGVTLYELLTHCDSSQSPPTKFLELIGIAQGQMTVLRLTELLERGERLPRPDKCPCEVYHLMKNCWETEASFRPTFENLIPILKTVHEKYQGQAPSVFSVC
Method in brief: as §1

[6] = biological target: T6, ACVR1B (ALK4) (Homo sapiens, UniProt P36896)
T6 construct: purchased ThermoFisher (SelectScreen, Z'-LYTE)
T6 sequence (P36896 24-505): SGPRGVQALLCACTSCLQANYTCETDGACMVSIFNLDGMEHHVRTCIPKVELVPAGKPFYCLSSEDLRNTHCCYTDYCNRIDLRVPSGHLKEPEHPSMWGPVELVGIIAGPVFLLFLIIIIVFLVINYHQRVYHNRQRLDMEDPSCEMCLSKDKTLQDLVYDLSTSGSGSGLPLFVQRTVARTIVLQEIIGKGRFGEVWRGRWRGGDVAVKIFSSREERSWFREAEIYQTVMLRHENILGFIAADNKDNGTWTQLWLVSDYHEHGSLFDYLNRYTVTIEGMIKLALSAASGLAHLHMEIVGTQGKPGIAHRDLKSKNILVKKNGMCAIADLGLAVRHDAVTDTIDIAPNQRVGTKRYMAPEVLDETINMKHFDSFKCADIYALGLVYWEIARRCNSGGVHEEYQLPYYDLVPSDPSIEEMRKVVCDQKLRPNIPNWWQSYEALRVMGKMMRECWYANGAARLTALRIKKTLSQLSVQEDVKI
Method in brief: as §1

[7] = biological target: T7, EPHB3 (Homo sapiens, UniProt P54753)
T7 construct: purchased ThermoFisher (SelectScreen, Z'-LYTE)
T7 sequence (P54753 34-998): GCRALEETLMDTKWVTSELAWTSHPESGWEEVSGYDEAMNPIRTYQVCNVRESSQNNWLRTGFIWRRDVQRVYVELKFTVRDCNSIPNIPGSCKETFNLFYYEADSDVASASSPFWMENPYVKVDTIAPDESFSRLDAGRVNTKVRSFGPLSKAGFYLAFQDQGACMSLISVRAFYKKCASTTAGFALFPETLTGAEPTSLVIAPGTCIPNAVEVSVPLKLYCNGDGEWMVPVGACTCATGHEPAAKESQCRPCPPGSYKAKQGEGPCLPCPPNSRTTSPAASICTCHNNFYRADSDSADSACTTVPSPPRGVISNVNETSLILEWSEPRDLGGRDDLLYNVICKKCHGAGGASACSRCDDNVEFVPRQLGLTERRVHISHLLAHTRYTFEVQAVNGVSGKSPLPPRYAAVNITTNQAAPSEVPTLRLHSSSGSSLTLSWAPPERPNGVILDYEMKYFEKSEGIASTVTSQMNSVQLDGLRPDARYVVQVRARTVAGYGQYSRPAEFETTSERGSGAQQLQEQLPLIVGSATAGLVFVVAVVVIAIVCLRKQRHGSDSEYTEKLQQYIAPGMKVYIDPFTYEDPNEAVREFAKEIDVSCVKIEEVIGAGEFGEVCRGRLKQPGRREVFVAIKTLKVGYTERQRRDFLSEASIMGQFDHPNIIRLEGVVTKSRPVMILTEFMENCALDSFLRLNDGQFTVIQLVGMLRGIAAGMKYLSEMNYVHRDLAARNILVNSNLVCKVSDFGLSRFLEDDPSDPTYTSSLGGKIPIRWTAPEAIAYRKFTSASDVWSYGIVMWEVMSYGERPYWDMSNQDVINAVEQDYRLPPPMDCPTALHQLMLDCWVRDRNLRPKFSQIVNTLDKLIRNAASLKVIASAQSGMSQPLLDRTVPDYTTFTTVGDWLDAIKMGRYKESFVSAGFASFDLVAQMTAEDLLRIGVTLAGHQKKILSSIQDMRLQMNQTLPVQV
Method in brief: as §1

[8] = biological target: T8, CHEK1 (CHK1) (Homo sapiens, UniProt O14757)
T8 construct: purchased ThermoFisher (SelectScreen, Z'-LYTE)
T8 sequence (O14757 1-476): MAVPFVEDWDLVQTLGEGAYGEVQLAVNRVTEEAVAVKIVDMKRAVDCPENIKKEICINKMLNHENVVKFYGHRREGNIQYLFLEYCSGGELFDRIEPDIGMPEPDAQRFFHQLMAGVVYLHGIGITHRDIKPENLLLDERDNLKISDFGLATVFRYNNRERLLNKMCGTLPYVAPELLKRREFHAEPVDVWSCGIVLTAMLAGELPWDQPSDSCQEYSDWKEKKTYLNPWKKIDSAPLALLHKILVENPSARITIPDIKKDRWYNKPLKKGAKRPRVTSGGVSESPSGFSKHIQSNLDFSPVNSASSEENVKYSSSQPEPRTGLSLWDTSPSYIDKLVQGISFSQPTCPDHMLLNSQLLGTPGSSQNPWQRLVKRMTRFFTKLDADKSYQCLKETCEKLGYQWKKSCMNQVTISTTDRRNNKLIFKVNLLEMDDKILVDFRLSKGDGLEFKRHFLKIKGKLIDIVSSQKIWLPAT
Method in brief: as §1

[9] = biological target: T9, PDK1 (Homo sapiens, UniProt O15530); details: 10 µM compound; ATP 100
T9 construct: purchased ThermoFisher (SelectScreen, Z'-LYTE)
T9 sequence (O15530 1-556): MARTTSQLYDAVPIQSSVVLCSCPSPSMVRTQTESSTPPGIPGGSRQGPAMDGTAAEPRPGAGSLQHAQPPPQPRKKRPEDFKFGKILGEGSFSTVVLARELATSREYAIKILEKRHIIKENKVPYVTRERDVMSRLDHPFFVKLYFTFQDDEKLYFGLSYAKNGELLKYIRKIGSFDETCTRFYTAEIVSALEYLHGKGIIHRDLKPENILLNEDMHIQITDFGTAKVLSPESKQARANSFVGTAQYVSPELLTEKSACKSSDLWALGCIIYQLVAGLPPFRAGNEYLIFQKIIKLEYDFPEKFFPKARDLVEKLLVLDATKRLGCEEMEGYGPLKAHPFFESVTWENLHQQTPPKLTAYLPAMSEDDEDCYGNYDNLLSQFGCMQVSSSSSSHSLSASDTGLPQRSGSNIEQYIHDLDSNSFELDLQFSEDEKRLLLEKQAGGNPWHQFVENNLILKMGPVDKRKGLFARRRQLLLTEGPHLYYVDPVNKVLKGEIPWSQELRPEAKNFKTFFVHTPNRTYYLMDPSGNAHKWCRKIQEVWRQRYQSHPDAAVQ
Method in brief: as §1

XMD8-92 [Compound 2, reference compound]
PRKCA (PKC alpha) % Inhibition ([1]; 10 µM compound, ATP Km app): 47%
CDK1/cyclin B % Inhibition ([2]; 10 µM compound, ATP Km app): 8.43%
SRPK1 % Inhibition ([3]; 10 µM compound, ATP Km app): -3%
LTK (TYK1) % Inhibition ([4]; 10 µM compound, ATP Km app): 24%
TYK2 % Inhibition [5]: 36%
ACVR1B (ALK4) % Inhibition ([6]; 10 µM compound, ATP Km app): -2.75%
EPHB3 % Inhibition ([7]; 10 µM compound, ATP Km app): 22%
CHEK1 (CHK1) % Inhibition ([8]; 10 µM compound, ATP Km app): 8%
PDK1 % Inhibition [9]: 21%

Cc1ncc(-c2nc(Nc3ccc(C(=O)NCCN4CCCCC4)cc3)ncc2F)n1C(C)C [Compound 3]
inhibition at 10 µM [1]: 102%
inhibition at 10 µM [2]: 96%
inhibition at 10 µM [3]: 24%
inhibition at 10 µM [4]: 73%
inhibition at 10 µM [5]: 101%
inhibition at 10 µM [6]: 52%
inhibition at 10 µM [7]: 51%
inhibition at 10 µM [8]: 87%
inhibition at 10 µM [9]: 50%

Cc1cc(Nc2nc(N)nn2C(=O)NC(C)C)ccc1Cl [Compound 5]
inhibition at 10 µM [1]: 7%
inhibition at 10 µM [2]: 56%
inhibition at 10 µM [3]: 2%
inhibition at 10 µM [4]: 18%
inhibition at 10 µM [5]: > 80%
TYK2 % Inhibition ([5]; listed as SN1109056190, 10 µM): 94%
inhibition at 10 µM [6]: -8%
inhibition at 10 µM [7]: 0.2%
inhibition at 10 µM [8]: 14%
inhibition at 10 µM [9]: 8%
